How the values were obtained:
[1] = system: RNA oligonucleotide corresponding to the 16S rRNA A site; assay: Gel mobility shift assay of gentamicin binding to the 16S rRNA A site oligonucleotide
Description: FIG. 3. Gentamicin interacts with an oligonucleotide corresponding to the 16S rRNA. 20 μl reactions containing increasing concentrations of gentamicin (1 ng/ml, 10 ng/ml, 100 ng/ml, 1 μg/ml, 10 μg/ml, 50 μg/ml, 500 μg/ml) were added to 50 pmole end-labeled RNA oligonucleotide in TKM buffer, heated at 90° C. for 2 min and allowed to cool slowly to 24° C. 10 μl of 30% glycerol was added to each sample and the samples were applied to a 13.5% non-denaturing polyacrylamide gel. The gel was electrophoresed using 1200 volt-hours at 4° C. in TBE Buffer. Following electrophoresis, the gel was dried and the radioactivity was quantitated using a phosphorimager. The concentration of gentamicin added is indicated above each lane.
(§1) FIG. 4. The presence of 10 pg/ml gentamicin produces a gel mobility shift in the presence of the 16S rRNA oligonucleotide. 20 μl reactions containing increasing concentrations of gentamicin (100 ng/ml, 10 ng/ml, 1 ng/ml, 100 pg/ml, and 10 pg/ml) were added to 50 pmole end-labeled RNA oligonucleotide in TKM buffer were treated as described for FIG. 3.
FIG. 5. Gentamicin binding to the 16S rRNA oligonucleotide is weak in the absence of MgCl2.
(§2) Tris-potassium chloride (TK) buffer is composed of 50 mM Tris-HCl pH 7.4, 20 mM KCl, 0.1% Triton X-100, and 0.5 mM MgCl2. Tris-borate-EDTA (TBE) buffer is composed of 45 mM Tris-borate pH 8.0, and 1 mM EDTA. Tris-Potassium chloride-magnesium (TKM) buffer is composed of 50 mM Tris-HCl pH 7.4, 20 mM KCl, 0.1% Triton X-100 and 5 mM MgCl2.
RNA oligonucleotides were purchased from Dharmacon, Inc, Lafayette, Colo.). 500 pmole of either a 5′ fluorescein labeled oligonucleotide corresponding to the 16S rRNA A site (5′-[…]-3′ (SEQ ID NO:1); Moazed & Noller, 1987, Nature 327:389-394; Woodcock et al., 1991, EMBO J. 10:3099-3103; Yoshizawa et al., 1998, EMBO J. 17:6437-6448) or a 5′ fluorescein labeled oligonucleotide corresponding to the HIV-1 TAR element TAR RNA (5′-[…]-3′ (SEQ ID NO: 2); Huq et al., 1999, Nucleic Acids Research. 27:1084-1093; Hwang et al., 1999, Proc. Natl. Acad. Sci. USA 96:12997-13002) was 3′ labeled with 5′-^32P cytidine 3′,5′-bis(phosphate) (NEN) and T4 RNA ligase (NEBiolabs) in 10% DMSO as per manufacturer's instructions. The labeled oligonucleotides were purified using G-25 Sephadex columns (Boehringer Mannheim). For Tat-TAR gel retardation reactions the method of Huq et al. (Nucleic Acids Research, 1999, 27:1084-1093) was utilized with TK buffer containing 0.5 mM MgCl2 and a 12-mer Tat peptide (YGRKKRRQRRRP (SEQ ID NO: 3; single letter amino acid code). For 16S rRNA-gentamicin reactions, the method of Huq et al was used with TKM buffer. In 20 μl reaction volumes 50 pmoles of ^32P cytidine-labeled oligonucleotide and either gentamicin sulfate (Sigma) or the short Tat peptide (Tat47-58) in TK or TKM buffer were heated at 90° C. for 2 minutes and allow to cool to room temperature (approximately 24° C.) over 2 hours. Then 10 μl of 30% glycerol was added to each reaction tube and the entire sample was loaded onto a TBE non-denaturing polyacrylamide gel and electrophoresed at 1200-1600 volt-hours at 4° C. The gel was exposed to an intensifying screen and radioactivity was quantitated using a Typhoon phosporimager molecular Dynamics).

[2] = system: HIV TAR RNA element oligonucleotide; assay: Gel mobility shift specificity control: gentamicin with an unrelated oligonucleotide; assay type: binding; conditions: incubated with 10 mg/ml gentamicin, FIG. 4
Description: as §1
RNA oligonucleotides were purchased from Dharmacon, Inc, Lafayette, Colo.). 500 pmole of either a 5′ fluorescein labeled oligonucleotide corresponding to the 16S rRNA A site (5′-[…]-3′ (SEQ ID NO:1); Moazed & Noller, 1987, Nature 327:389-394; Woodcock et al., 1991, EMBO J. 10:3099-3103; Yoshizawa et al., 1998, EMBO J. 17:6437-6448) or a 5′ fluorescein labeled oligonucleotide corresponding to the HIV-1 TAR element TAR RNA (5′-[…]-3′ (SEQ ID NO: 2); Huq et al., 1999, Nucleic Acids Research. 27:1084-1093; Hwang et al., 1999, Proc. Natl. Acad. Sci. USA 96:12997-13002) was 3′ labeled with 5′-^32P cytidine 3′,5′-bis(phosphate) (NEN) and T4 RNA ligase (NEBiolabs) in 10% DMSO as per manufacturer's instructions. The labeled oligonucleotides were purified using G-25 Sephadex columns (Boehringer Mannheim). […] The gel was exposed to an intensifying screen and radioactivity was quantitated using a Typhoon phosporimager molecular Dynamics). […]

[3] = system: HIV-1 TAR element TAR RNA oligonucleotide; assay: Gel retardation analysis of Tat peptide binding to TAR RNA (non-denaturing polyacrylamide gel); conditions: 12% non-denaturing polyacrylamide gel, TK buffer, FIG. 2
Description: FIG. 2. Gel retardation analysis to detect peptide-RNA interactions. In 20 μl reactions containing 50 pmole end-labeled TAR RNA oligonucleotide, increasing concentrations of Tat47-58 peptide (0.1 uM, 0.2 uM, 0.4 uM, 0.8 uM, 1.6 uM) was added in TK buffer. The reaction mixture was then heated at 90° C for 2 min and allowed to cool slowly to 24° C. 10 μl of 30% glycerol was added to each sample and applied to a 12% non-denaturing polyacrylamide gel. The gel was electrophoresed using 1200 volt-hours at 4° C. in TBE Buffer. Following electrophoresis, the gel was dried and the radioactivity was quantitated with a phosphorimager. The concentration of peptide added is indicated above each lane.
as §2
RNA oligonucleotides were purchased from Dharmacon, Inc, Lafayette, Colo.). […] The gel was exposed to an intensifying screen and radioactivity was quantitated using a Typhoon phosporimager molecular Dynamics).

[4] = system: HIV-1 TAR element TAR RNA oligonucleotide; assay: Gel retardation assay by automated capillary electrophoresis (Tat peptide and TAR RNA); assay type: binding; conditions: increasing concentrations of Tat peptide, SCE9610 apparatus, FIG. 6
Description: FIG. 6. Gel retardation analysis to detect peptide-RNA interactions. In reactions containing increasing concentrations of Tat47-58 peptide (0.1 mM, 0.2 mM, 0.4 mM, 0.8 mM, 1.6 mM) 50 pmole TAR RNA oligonucleotide was added in TK buffer. The reaction mixture was then heated at 90° C. for 2 min and allowed to cool slowly to 24° C. The reactions were loaded onto a SCE9610 automated capillary electrophoresis apparatus (SpectruMedix; State College, Pennsylvania). The peaks correspond to the amount of free TAR RNA (“TAR”) or the Tat-TAR complex (“Tat-TAR”). The concentration of peptide added is indicated below each lane.
as §2, with “0.5 mM MgC2. Tris-borate-EDTA (IBE)” for “0.5 mM MgCl2. Tris-borate-EDTA (TBE)”, “MgC2. Tris-borate-EDTA (IBE) buffer is” for “MgCl2. Tris-borate-EDTA (TBE) buffer is”
RNA oligonucleotides were purchased from Dharmacon, Inc, Lafayette, Colo.). 500 pmole of a 5′ fluorescein labeled oligonucleotide corresponding to the HIV-1 TAR element TAR RNA (5′-[…]-3′ (SEQ ID NO: 2); Huq et al., 1999, Nucleic Acids Research. 27:1084-1093; Hwang et al., 1999, Proc. Natl. Acad. Sci. USA 96:12997-13002) was used. […]

## gentamicin
[1]; TKM buffer (5 mM MgCl2), 1 ng/ml to 500 μg/ml tested, FIG. 3
  lowest gentamicin concentration that produces the mobility shift: ≤ 10 ng/mL
[1]; added after the renaturation step has proceeded to 75° C.
  gel shift when gentamicin is added after renaturation has proceeded to 75° C.: a mobility shift is not produced
[1]; buffer without MgCl2, FIG. 5
  gentamicin binding to the 16S rRNA oligonucleotide in the absence of MgCl2: weak
[1]; gentamicin present during entire denaturation/renaturation cycle, data not shown
  gel shift when gentamicin is added at 90° C. or 85° C.: a gel shift is visualized
[1]; no MgCl2 (TK buffer), FIG. 5
  gentamicin concentration that must be added to produce a gel shift when MgCl2 is not present: 1 mg/mL
[1]; varying concentrations, TKM buffer, FIG. 3
  mobility shift of 16S rRNA A site oligonucleotide on addition of gentamicin: produces a mobility shift
[2]
  gel mobility shift of unrelated HIV TAR RNA oligonucleotide: does not result in a gel mobility shift

## YGRKKRRQRRRP [Tat47-58 peptide]
[3]
  gel mobility shift of TAR RNA oligonucleotide in the presence of the peptide: a clear shift is visible
[4]
  shift of TAR RNA peak in capillary electrophoresis: a clear shift is visible

Source: patent US7927791B2, “Methods for identifying small molecules that modulate premature translation termination and nonsense mediated mRNA decay” (PTC Therapeutics, Inc., priority 2002, dated 2011)
